Assay [1] deals with MCF7 cells. Briefly: Inhibitory effects on MCF7 cell proliferation (CellTiter-Glo). The format is cell-based. The conditions noted are these: Homo sapiens, 144 h, 6 days incubation, read-out: IC50 (nM), inhibition of MCF7 cell proliferation. How it is done:
(§1) MCF7 cells (TCHu74, National Collection of Authenticated Cell Cultures) were cultured in an MEM (GE Healthcare, SH30024.01) complete medium containing 10% fetal bovine serum. On day 1 of the experiment, MCF7 cells were seeded into a 96-well plate at a density of 3,000 cells/well using MEM containing 2% fetal bovine serum, with each well containing 135 μL of cell suspension. The plate was incubated in a 37° C., 5% CO2 cell incubator overnight. The next day, different concentrations of test compounds prepared in media were added at 15 μL/well. The final concentrations of the compounds were 9 concentration points obtained by 4-fold serial dilution from 1000 nM. A blank control containing 0.5% DMSO was set up. The plate was incubated in a 37° C., 5% CO2 cell incubator for 6 days. On day 8, the 96-well cell culture plate was taken out, and CellTiter-Glo® Luminescent Cell Viability Assay (Promega, G7573) was added at 75 μL/well. After the plate was left at room temperature for 10 min, luminescence signal readings were taken on a multilabel microplate reader (PerkinElmer, VICTOR 3). The IC50 values for the inhibitory activity of the compounds were calculated from the concentrations of the compounds and the luminescence signal readings using Graphpad Prism software.
For orientation: ATP-based viability assays read luminescence as a measure of living cells.

The test system of assay [2] is MCF7/ERα Y537S cells. Briefly: Inhibitory activity on proliferation of ERα mutant-expressing MCF7 cells. The conditions noted are these: Homo sapiens, 144 h, 6 days incubation, CellTiter-Glo, read-out: IC50 (nM), inhibition of proliferation of ERα mutant-expressing MCF7 cells. In kind it is cell-based. On the procedure:
The objective of this experiment was to determine the inhibitory activity of the compounds of the present disclosure on the proliferation of ERα mutant-expressing MCF7 cells.
as §1, with “cells expressing the ERα Y537S mutant were constructed by lentiviral infection. MCF7/ERα Y537S cells” for “cells (TCHu74, National Collection of Authenticated Cell Cultures)”, “bovine serum and […] puromycin.” for “bovine serum.”, “experiment,” for “experiment, MCF7”, “135 µL” for “135 μL”, “75 µL/well.” for “75 μL/well.”

Each structure is given as a SMILES string.

For 15 compounds, IC50 results are on record in patent publication US20250099596A1, “TETRAHYDRONAPHTHALENE COMPOUND, AND PREPARATION METHOD THEREFOR AND USE THEREOF IN MEDICINE” (Jiangsu Hengrui Pharmaceuticals Co., Ltd., priority 2021, published 2025).

`CC[C@H]1CCc2cc(O)ccc2[C@H]1c1ccc(N2CCC(CN3CCN(c4ccc5c(c4)CN([C@H]4CCC(=O)NC4=O)C5=O)CC3)CC2)cc1` [Example 28, (S)-3-(5-(4-((1-(4-((1R,2S)-6-Hydroxy-2-ethyl-1,2,3,4-tetrahydronaphthalen-1-yl)phenyl)piperidin-4-yl)methyl)piperazin-1-yl)-1-oxoisoindolin-2-yl)piperidine-2,6-dione]: the IC50 is 1.51 nM in assay [1] and 5.21 nM in assay [2].
For `O=C1CCC(N2Cc3cc(N4CCN(CC5CCN(c6ccc([C@H]7c8ccc(O)cc8CCC78CCC8)cc6)CC5)CC4)ccc3C2=O)C(=O)N1` (mixture of isomers) [Example 23-2, 3-(5-(4-((1-(4-((S)-6′-Hydroxy-3′,4′-dihydro-1′H-spiro[cyclobutane-1,2′-naphthalen]-1′-yl)phenyl)piperidin-4-yl)methyl)piperazin-1-yl)-1-oxoisoindolin-2-yl)piperidine-2,6-dione], the figures for the IC50 in assay [1] and in assay [2] were 20 nM and 72.1 nM, respectively.
On to `O=C1CCC(N2Cc3cc(N4CCN(CC5CCN(c6ccc([C@@H]7c8ccc(O)cc8CC[C@@H]7C7CCOCC7)cc6F)CC5)CC4)ccc3C2=O)C(=O)N1` (relative stereo) [Example 3, 3-(5-(4-((1-(2-Fluoro-4-((1,2)-cis-6-hydroxy-2-(tetrahydro-2H-pyran-4-yl)-1,2,3,4-tetrahydronaphthalen-1-yl)phenyl)piperidin-4-yl)methyl)piperazin-1-yl)-1-oxoisoindolin-2-yl)piperidine-2,6-dione], for which the IC50 came out at 1.56 nM in assay [1] and 5.79 nM in assay [2].
For `O=C1CC[C@@H](N2Cc3cc(N4CCN(CC5CCN(c6ccc([C@@H]7c8ccc(O)cc8CC[C@@H]7C7CCOCC7)cc6F)CC5)CC4)ccc3C2=O)C(=O)N1` [Example 43, (R)-3-(5-(4-((1-(2-Fluoro-4-((1R,2R)-6-hydroxy-2-(tetrahydro-2H-pyran-4-yl)-1,2,3,4-tetrahydronaphthalen-1-yl)phenyl)piperidin-4-yl)methyl)piperazin-1-yl)-1-oxoisoindolin-2-yl)piperidine-2,6-dione] the same measures were 3.57 nM and 36.3 nM.
`O=C1CC[C@H](N2Cc3cc(N4CCN(CC5CCN(c6ccc([C@@H]7c8ccc(O)cc8OC[C@@H]7C7CCC7)cc6)CC5)CC4)ccc3C2=O)C(=O)N1` [Example 32, (S)-3-(5-(4-((1-(4-((3R,4R)-3-Cyclobutyl-7-hydroxychroman-4-yl)phenyl)piperidin-4-yl)methyl)piperazin-1-yl)-1-oxoisoindolin-2-yl)piperidine-2,6-dione]: the IC50 in assay [1] was 8.34 nM; in assay [2], 28.8 nM.
In the same order, the values of `CC(C)CC[C@H]1CCc2cc(O)ccc2[C@H]1c1ccc(N2CCC(CN3CCN(c4ccc5c(c4)CN([C@H]4CCC(=O)NC4=O)C5=O)CC3)CC2)cc1` [Example 40, (S)-3-(5-(4-((1-(4-((1R,2S)-6-Hydroxy-2-isopentyl-1,2,3,4-tetrahydronaphthalen-1-yl)phenyl)piperidin-4-yl)methyl)piperazin-1-yl)-1-oxoisoindolin-2-yl)piperidine-2,6-dione] are 3.17 nM and 8.89 nM.
Regarding `CC(C)C[C@H]1CCc2cc(O)ccc2[C@H]1c1ccc(N2CCC(CN3CCN(c4ccc5c(c4)CN([C@H]4CCC(=O)NC4=O)C5=O)CC3)CC2)c(F)c1` [Example 37, (S)-3-(5-(4-((1-(2-Fluoro-4-((1R,2R)-6-hydroxy-2-isobutyl-1,2,3,4-tetrahydronaphthalen-1-yl)phenyl)piperidin-4-yl)methyl)piperazin-1-yl)-1-oxoisoindolin-2-yl)piperidine-2,6-dione], the results for the IC50 in assay [1] and in assay [2] were 1.46 nM and 5.27 nM, respectively.
As to `O=C1CCC(N2Cc3cc(N4CCN(CC5CCN(c6ccc([C@H]7c8ccc(O)cc8CC[C@H]7C7CCCC7)cc6)CC5)CC4)ccc3C2=O)C(=O)N1` (stereo partly drawn) [Example 14-2, 3-(5-(4-((1-(4-((1S,2S)-2-Cyclopentyl-6-hydroxy-1,2,3,4-tetrahydronaphthalen-1-yl)phenyl)piperidin-4-yl)methyl)piperazin-1-yl)-1-oxoisoindolin-2-yl)piperidine-2,6-dione], the IC50 is 8.17 nM in assay [1] and 24.4 nM in assay [2].
For `O=C1CCC(N2Cc3cc(N4CCN(CC5CCN(c6ccc([C@@H]7c8ccc(O)cc8CC[C@@H]7C7CCCCC7)cc6)CC5)CC4)ccc3C2=O)C(=O)N1` (mixture of isomers) [Example 15-1, 3-(5-(4-((1-(4-((1R,2R)-2-Cyclohexyl-6-hydroxy-1,2,3,4-tetrahydronaphthalen-1-yl)phenyl)piperidin-4-yl)methyl)piperazin-1-yl)-1-oxoisoindolin-2-yl)piperidine-2,6-dione] the same measures were 0.46 nM and 2.18 nM.
In the same order, the values of `O=C1CCC(N2Cc3nc(N4CCN(CC5CCN(c6ccc([C@@H]7c8ccc(O)cc8CCC78CCCC8)cc6)CC5)CC4)ccc3C2=O)C(=O)N1` (mixture of isomers) [Example 6, 3-(2-(4-((1-(4-((R)-6′-Hydroxy-3′,4′-dihydro-1′H-spiro[cyclopentane-1,2′-naphthalen]-1′-yl)phenyl)piperidin-4-yl)methyl)piperazin-1-yl)-5-oxo-5,7-dihydro-6H-pyrrolo[3,4-b]pyridin-6-yl)piperidine-2,6-dione] are 0.75 nM and 3.19 nM.
In the same order, the values of `O=C1CC[C@H](N2Cc3cc(N4CCN(CC5CCN(c6ccc([C@@H]7c8ccc(O)cc8CC[C@@H]7C7CCCCC7)cc6F)CC5)CC4)ccc3C2=O)C(=O)N1` [Example 20, (S)-3-(5-(4-((1-(4-((1R,2R)-2-Cyclohexyl-6-hydroxy-1,2,3,4-tetrahydronaphthalen-1-yl)-2-fluorophenyl)piperidin-4-yl)methyl)piperazin-1-yl)-1-oxoisoindolin-2-yl)piperidine-2,6-dione] are 0.73 nM and 2.74 nM.
On to `CC(C)[C@H]1CCc2cc(O)ccc2[C@H]1c1ccc(N2CCC(CN3CCN(c4ccc5c(c4)CN([C@H]4CCC(=O)NC4=O)C5=O)CC3)CC2)cc1` [Example 24, (S)-3-(5-(4-((1-(4-((1R,2R)-6-Hydroxy-2-isopropyl-1,2,3,4-tetrahydronaphthalen-1-yl)phenyl)piperidin-4-yl)methyl)piperazin-1-yl)-1-oxoisoindolin-2-yl)piperidine-2,6-dione], for which the results for the IC50 in assay [1] and in assay [2] were 1.21 nM and 5.44 nM, respectively.
In the case of `O=C1CCC(N2Cc3cc(N4CCN(CC5CCN(c6ccc([C@H]7c8ccc(O)cc8CC[C@H]7C7CCOCC7)cc6)CC5)CC4)ccc3C2=O)C(=O)N1` (stereo partly drawn) [Example 8-2, 3-(5-(4-((1-(4-((1S,2S)-6-Hydroxy-2-(tetrahydro-2H-pyran-4-yl)-1,2,3,4-tetrahydronaphthalen-1-yl)phenyl)piperidin-4-yl)methyl)piperazin-1-yl)-1-oxoisoindolin-2-yl)piperidine-2,6-dione], the IC50 in assay [1] was determined as 36.5 nM; in assay [2] it was 92.2 nM.
For `O=C1CCC(N2Cc3cc(N4CCN(CC5CCN(c6ccc([C@@H]7c8ccc(O)cc8CC[C@@H]7C7CCC(F)(F)CC7)cc6)CC5)CC4)ccc3C2=O)C(=O)N1` (mixture of isomers) [Example 10, 3-(5-(4-((1-(4-((1R,2R)-2-(4,4-Difluorocyclohexyl)-6-hydroxy-1,2,3,4-tetrahydronaphthalen-1-yl)phenyl)piperidin-4-yl)methyl)piperazin-1-yl)-1-oxoisoindolin-2-yl)piperidine-2,6-dione] the same measures were 0.3 nM and 1.38 nM.
With `O=C1CC[C@H](N2Cc3cc(N4CCN(CC5CCN(c6ccc([C@@H]7c8ccc(O)cc8CC[C@@H]7C7CCOCC7)cc6F)CC5)CC4)ccc3C2=O)C(=O)N1` [Example 5, (S)-3-(5-(4-((1-(2-Fluoro-4-((1R,2R)-6-hydroxy-2-(tetrahydro-2H-pyran-4-yl)-1,2,3,4-tetrahydronaphthalen-1-yl)phenyl)piperidin-4-yl)methyl)piperazin-1-yl)-1-oxoisoindolin-2-yl)piperidine-2,6-dione], the figures for the IC50 in assay [1] and in assay [2] were 0.72 nM and 2.29 nM, respectively.
